Each molecule was assayed on 8×TBD luciferase reporter in HEK293T cells (assay: YAP Reporter Assay (firefly luciferase)). Conditions: Homo sapiens, HEK-293T; HEK293T cells stably transfected with 8×TBD luciferase reporter and pRLTK; 24-hr incubation; starting from 3 μM, 1:3 dilution, 10 points.
Format: cell-based
Procedure: HEK293T cells stably transfected with 8×TBD luciferase reporter and pRLTK in 384-well plates were treated with the test compounds, starting from 3 μM (final concentration in assay plate), 1:3 dilution, and 10 points in quadruplicates. Post 24-hr incubation with compounds at 37° C. and 5% CO2, cells were lysed and 8×TBD-driven firefly luciferase and control TK-driven renilla luciferase activities were measured using Promega Dual-Luciferase Reporter Assay System.
Reagents: The reagents used for this study are: DMEM: Invitrogen #11960077, Dual-Glo Luciferase Assay System: Promega-E2980, Puromycin Dihydrochloride: Invitrogen-A1113803, 384-well plate: PerkinElmer-6007480, L-GLUTAMINE: Invitrogen-25030164, Hygromycin B: Invitrogen-10687010, and Penicillin-Streptomycin: Merk-TMS-AB2-C
Media: The media used for this assay were: Culture Medium: DMEM+1 ug/mL puromycin+200 ug/mL hygromycin (with 10% FBS+1 mM L-glutamine); and Assay Medium: DMEM (with 10% FBS+1 mM L-glutamine+1×P/S).
Cell Plating: The appropriate media was warmed at 37° C. by water bath: Culture Medium, Assay Medium, 1*D-PBS, 0.05% trypsin-EDTA. The cells were trypsinized after removing all media, then washed with 1*sterile D-PBS and then with 2 ml 0.05% trypsin-EDTA. The cells were then incubated at RT for one minute. Then 10 ml/75 cm2 flask Assay Medium was added to each flask. Using a 10 ml pipette, the cells were then gently resuspended in the media, until the clumps completely disappeared. The cells were then transferred into 50 ml centrifuge tubes and were centrifuged at 800 rpm for 5 mins. The medium was removed and the cells were resuspended with Assay Medium. An aliquot of cells was used to count the cell density (cells/ml). The cell suspension was then diluted with Assay Medium to a concentration of 6×10^4 cells/ml. 50 ul cells suspension was then plated to 384-well plate (PerkinElmer-6007480), 3×10^3 cells/well and the cells were incubated in an incubator at 37° C., 5% CO2.
Compound Treatment: In the afternoon (incubation of the plate with 3-4 hrs), the test compounds were added by Echo, starting from 3 uM (final concentration in the assay plate), 1:3 dilution, 10 points, quadruplicates. The plate was placed at 37° C., 5% CO2 incubator for 24 hrs.
Detection: The Dual-Glo Luciferase Reagent was prepared by transferring the contents of one bottle of Dual-Glo Luciferase Buffer to one bottle of Dual-Glo Luciferase Substrate to create the Dual-G Luciferase Reagent. Mixing was performed by inversion until the substrate was thoroughly dissolved. After mixing, the reagent was aliquoted into 15 ml tubes. In the afternoon (24 hrs post compound treatment), the DMEM+ medium in the 384 well plates were aspirated by Microplate Washer.
Measuring firefly luciferase activity: 20 ul Dual-Glo Luciferase Reagent was added to the 384-well plates. The plates were protected from light to prevent interference with the assay. The plates were shaken for […] followed centrifuging plates at 1000 rpm for 30 seconds. After waiting at least 10 minutes, the firefly luminescence was measured by Envision.
Measuring renilla luciferase activity: 20 ul Stop-Glo Reagent was added to the 384-well plates. The plates were shaken for […] and then centrifuged at 1000 rpm for 30 seconds. After waiting at least 10 minutes, the renilla luminescence was measured by Envision.
Compound IC50 and maximum inhibition on the firefly luciferase and renilla luciferase activities were reported separately.

First: CN(C)C1CN(C(=O)c2ccc3c(Oc4ccc(C(F)(F)F)cc4)cccc3c2)C1 [Compound 12, (3-(Dimethylamino)azetidin-1-yl)(5-(4-(trifluoromethyl)phenoxy)naphthalen-2-yl)methanone]
Second: CN(C)CC1CN(C(=O)c2ccc3c(Oc4ccc(C(F)(F)F)cc4)cccc3c2)C1 [Compound 14, (3-((Dimethylamino)methyl)azetidin-1-yl)(5-(4-(trifluoromethyl)phenoxy)naphthalen-2-yl)methanone]
The IC50 of the first is higher: 1000 to 3000 nM for the first, 100 to 1000 nM for the second.

O=C(c1ccc2c(Oc3ccc(C(F)(F)F)cc3)cccc2c1)N1CC(CNc2ccccn2)C1 [Compound 40, (3-((Pyridin-2-ylamino)methyl)azetidin-1-yl)(5-(4-(trifluoromethyl)phenoxy)naphthalen-2-yl)methanone] and O=C(c1ccc2c(Oc3ccc(C(F)(F)F)cc3)cccc2c1)N1CC(Nc2ccccn2)C1 [Compound 39, (3-(Pyridin-2-ylamino)azetidin-1-yl)(5-(4-(trifluoromethyl)phenoxy)naphthalen-2-yl)methanone] cannot be ordered by IC50: no more than 100 nM for the first, 100 to 1000 nM for the second.

NCC1CCCN(C(=O)c2ccc3c(Oc4ccc(C(F)(F)F)cc4)cccc3c2)C1 (centres unmarked) [Compound 9, (3-(Aminomethyl)piperidin-1-yl)(5-(4-(trifluoromethyl)phenoxy)naphthalen-2-yl)methanone] and NCC1CCN(C(=O)c2ccc3c(Oc4ccc(C(F)(F)F)cc4)cccc3c2)C1 (centres unmarked) [Compound 8, (3-(Aminomethyl)pyrrolidin-1-yl)(5-(4-(trifluoromethyl)phenoxy)naphthalen-2-yl)methanone] cannot be ordered by IC50: 100 to 1000 nM for the first, no more than 100 nM for the second.

CC(C)NCC1CN(C(=O)c2ccc3c(Oc4ccc(C(F)(F)F)cc4)cccc3c2)C1 [Compound 34, (3-((Isopropylamino)methyl)azetidin-1-yl)(5-(4-(trifluoromethyl)phenoxy)naphthalen-2-yl)methanone] and CNCC1CN(C(=O)c2ccc3c(Oc4ccc(C(F)(F)F)cc4)cccc3c2)C1 [Compound 25, (3-((Methylamino)methyl)azetidin-1-yl)(5-(4-(trifluoromethyl)phenoxy)naphthalen-2-yl)methanone] fall in the same range of IC50: 100 to 1000 nM for the first, 100 to 1000 nM for the second.

O=C(c1ccc2c(Oc3ccc(C(F)(F)F)cc3)cccc2c1)N1CC(CO)C1 [Compound 13, (3-(Hydroxymethyl)azetidin-1-yl)(5-(4-(trifluoromethyl)phenoxy)naphthalen-2-yl)methanone] and NC1CN(C(=O)c2ccc3c(Oc4ccc(C(F)(F)F)cc4)cccc3c2)C1 [Compound 1A, (3-aminoazetidin-1-yl)(5-(4-(trifluoromethyl)phenoxy)naphthalen-2-yl)methanone] cannot be ordered by IC50: no more than 100 nM for the first, no more than 100 nM for the second.

COCCN1CC2(C1)CN(C(=O)c1ccc3c(Oc4ccc(C(F)(F)F)cc4)cccc3c1)C2 [Compound 22, (6-(2-Methoxyethyl)-2,6-diazaspiro[3.3]heptan-2-yl)(5-(4-(trifluoromethyl)phenoxy)naphthalen-2-yl)methanone] and O=C(c1ccc2c(Oc3ccc(C(F)(F)F)cc3)cccc2c1)N1CC2(CN(CCF)C2)C1 [Compound 23, (6-(2-Fluoroethyl)-2,6-diazaspiro[3.3]heptan-2-yl)(5-(4-(trifluoromethyl)phenoxy)naphthalen-2-yl)methanone] fall in the same range of IC50: 100 to 1000 nM for the first, 100 to 1000 nM for the second.

CN1CC2(C1)CN(C(=O)c1ccc3c(Oc4ccc(C(F)(F)F)cc4)cccc3c1)C2 [Compound 18, (6-Methyl-2,6-diazaspiro[3.3]heptan-2-yl)(5-(4-(trifluoromethyl)phenoxy)naphthalen-2-yl)methanone] and CCN1CC2(C1)CN(C(=O)c1ccc3c(Oc4ccc(C(F)(F)F)cc4)cccc3c1)C2 [Compound 19, (6-Ethyl-2,6-diazaspiro[3.3]heptan-2-yl)(5-(4-(trifluoromethyl)phenoxy)naphthalen-2-yl)methanone] fall in the same range of IC50: 100 to 1000 nM for the first, 100 to 1000 nM for the second.

CCNC1CN(C(=O)c2ccc3c(Oc4ccc(C(F)(F)F)cc4)cccc3c2)C1 [Compound 27, (3-(Ethylamino)azetidin-1-yl)(5-(4-(trifluoromethyl)phenoxy)naphthalen-2-yl)methanone] and O=C(c1ccc2c(Oc3ccc(C(F)(F)F)cc3)cccc2c1)N1CC(NCCO)C1 [Compound 30, (3-((2-Hydroxyethyl)amino)azetidin-1-yl)(5-(4-(trifluoromethyl)phenoxy)naphthalen-2-yl)methanone] cannot be ordered by IC50: 100 to 1000 nM for the first, no more than 100 nM for the second.

First: NC1CCN(C(=O)c2ccc3c(Oc4ccc(C(F)(F)F)cc4)cccc3c2)CC1 [Compound 4, (4-Aminopiperidin-1-yl)(5-(4-(trifluoromethyl)phenoxy)naphthalen-2-yl)methanone]
Second: O=C(c1ccc2c(Oc3ccc(C(F)(F)F)cc3)cccc2c1)N1CCNCC1 [Compound 2, Piperazin-1-yl(5-(4-(trifluoromethyl)phenoxy)naphthalen-2-yl)methanone]
The IC50 of the first is lower: no more than 100 nM for the first, 1000 to 3000 nM for the second. The first is the more potent here.

CC(=O)NCC1CN(C(=O)c2ccc3c(Oc4ccc(C(F)(F)F)cc4)cccc3c2)C1 [Compound 16, N-((1-(5-(4-(trifluoromethyl)phenoxy)-2-naphthoyl)azetidin-3-yl)methyl)acetamide] and CS(=O)(=O)NCC1CN(C(=O)c2ccc3c(Oc4ccc(C(F)(F)F)cc4)cccc3c2)C1 [Compound 17, N-((1-(5-(4-(trifluoromethyl)phenoxy)-2-naphthoyl)azetidin-3-yl)methyl)methanesulfonamide] cannot be ordered by IC50: no more than 100 nM for the first, no more than 100 nM for the second.

CN(C)C(=O)c1ccc2c(Oc3ccc(C(F)(F)F)cc3)cccc2c1 [Compound 42, N,N-dimethyl-5-(4-(trifluoromethyl)phenoxy)naphthalene-2-carboxamide] and O=C(c1ccc2c(Oc3ccc(C(F)(F)F)cc3)cccc2c1)N1CC(O)C1 [Compound 15, (3-Hydroxyazetidin-1-yl)(5-(4-(trifluoromethyl)phenoxy)naphthalen-2-yl)methanone] cannot be ordered by IC50: 100 to 1000 nM for the first, no more than 100 nM for the second.

COCCNC1CN(C(=O)c2ccc3c(Oc4ccc(C(F)(F)F)cc4)cccc3c2)C1 [Compound 29, (3-((2-Methoxyethyl)amino)azetidin-1-yl)(5-(4-(trifluoromethyl)phenoxy)naphthalen-2-yl)methanone] and COCCNCC1CN(C(=O)c2ccc3c(Oc4ccc(C(F)(F)F)cc4)cccc3c2)C1 [Compound 35, (3-(((2-Methoxyethyl)amino)methyl)azetidin-1-yl)(5-(4-(trifluoromethyl)phenoxy)naphthalen-2-yl)methanone] fall in the same range of IC50: 100 to 1000 nM for the first, 100 to 1000 nM for the second.

O=C(c1ccc2c(Oc3ccc(C(F)(F)F)cc3)cccc2c1)N1CC(NCC(F)F)C1 [Compound 32, (3-((2,2-Difluoroethyl)amino)azetidin-1-yl)(5-(4-(trifluoromethyl)phenoxy)naphthalen-2-yl)methanone] and O=C(c1ccc2c(Oc3ccc(C(F)(F)F)cc3)cccc2c1)N1CC(CNCC(F)F)C1 [Compound 38, (3-(((2,2-Fifluoroethyl)amino)methyl)azetidin-1-yl)(5-(4-(trifluoromethyl)phenoxy)naphthalen-2-yl)methanone] cannot be ordered by IC50: 100 to 1000 nM for the first, no more than 100 nM for the second.

NCC1CN(C(=O)c2ccc3c(Oc4ccc(C(F)(F)F)cc4)cccc3c2)C1 [Compound 7, (3-(Aminomethyl)azetidin-1-yl)(5-(4-(trifluoromethyl)phenoxy)naphthalen-2-yl)methanone] and CC(C)NC1CN(C(=O)c2ccc3c(Oc4ccc(C(F)(F)F)cc4)cccc3c2)C1 [Compound 28, (3-(Isopropylamino)azetidin-1-yl)(5-(4-(trifluoromethyl)phenoxy)naphthalen-2-yl)methanone] cannot be ordered by IC50: no more than 100 nM for the first, no more than 100 nM for the second.

CC(C)N1CC2(CN(C(=O)c3ccc4c(Oc5ccc(C(F)(F)F)cc5)cccc4c3)C2)C1 [Compound 20, (6-Isopropyl-2,6-diazaspiro[3.3]heptan-2-yl)(5-(4-(trifluoromethyl)phenoxy)naphthalen-2-yl)methanone] gave an IC50 of 100 to 1000 nM.
